According to patent US20090181976A1, “Use of Compounds Binding to the Sigma Receptor for the Treatment of Metabolic Syndrome” (priority 2006, published 2009):

Key:
[1] = tested on: obese (diet-induced obesity) wild type mice; assay: Triglyceride levels in blood of high fat diet-fed obese mice after 9 days of treatment; format: in vivo; settings: male C57BL/6J mice on high fat diet, 50 mg/Kg s.c., once a day, blood on day 10, mean±standard deviation, p<0.05 vs vehicle control (91.75±32.88)
Method: Pharmacologic approach: Treatment of obese (diet-induced obesity) wild type mice with a sigma-1 receptor antagonist results in a significant reduction in the concentration of triglycerides in blood.
Wild type male mice from the C57BL/6J strain were used in these experiments. Mice of 8-10 weeks of age were fed for two months with high fat diet (49% fat content; Harlan Ibérica, TD97366). Treatment was administered subcutaneously, once a day, for 9 days. Treated animals received daily (for 9 days) a single dose of 50 mg/kg of BD-1063 (a sigma-1 receptor antagonist). Control animals received daily vehicle (saline). During the period of treatment, mice had free access to water and food (high fat diet). At the end of the treatment, on day 10, blood samples were obtained through intracardiac puncture and triglyceride levels were measured using the Cholestech LDX blood analyzer. Student t test was applied to determine statistical significance.
Values are means±standard deviation. Units are expressed as mg/100 mL.

[2] = target: sigma-1 (σ1) receptors (Homo sapiens, UniProt Q99720); settings: statement on literature knowledge; cited from earlier work
Chain of sigma-1 (σ1) receptors (Q99720 whole entry): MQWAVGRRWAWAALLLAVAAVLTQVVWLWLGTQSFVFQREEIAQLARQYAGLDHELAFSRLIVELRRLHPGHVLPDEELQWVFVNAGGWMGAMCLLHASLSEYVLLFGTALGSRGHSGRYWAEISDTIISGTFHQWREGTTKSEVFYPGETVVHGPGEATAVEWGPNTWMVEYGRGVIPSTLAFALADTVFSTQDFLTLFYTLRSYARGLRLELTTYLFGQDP

| Structure (SMILES) | Triglyceride Levels [1] [mg/100 mL] | affinity of sigma-1 receptors [2] |
| --- | --- | --- |
| CN1CCN(CCc2ccc(Cl)c(Cl)c2)CC1 [BD-1063] | 56.8±9.41 |  |
| CC(C)=CCN1CCC2(C)c3cc(O)ccc3CC1C2C (centres unmarked) [pentazocine] |  | very high affinity |
